From the Deep4Chem optical property database come the findings set out here.

A short description of the data set: solvent given as SMILES.
[1] abbreviates: in c1ccc2c(c1)c1ccccc1n2-c1ccc(-c2ccc(-n3c4ccccc4c4ccccc43)cc2)cc1.

For the setting “in ClCCl”, `COc1ccccc1C1=[N+]2C(=C(c3ccccc3)c3c4ccccc4c(-c4ccccc4OC)n3[B-]2(F)F)c2ccccc21` displayed a fluorescence lifetime of 5.8 ns.
The compound `C=CCOc1ccc(-c2nc3cc(C(NC(=O)OC(C)(C)C)C(=O)OC)ccc3o2)cc1` (stereo not drawn) came in with a fluorescence lifetime (in CC1CCCCC1) of 1.05 ns, a fluorescence lifetime (in CC#N) of 1.14 ns and a fluorescence lifetime (in CO) of 1.21 ns.
Compound `Cc1cc(C)c(B2c3cc(C)ccc3N3c4ccc(C)cc4B(c4c(C)cc(C)cc4C)c4cc(C)cc2c43)c(C)c1` yielded a fluorescence lifetime (in Cc1ccccc1-c1cccc(Oc2cc3c4c(c2)Oc2cc(-c5ccccc5C)ccc2B4c2ccc(-c4ccccc4C)cc2O3)c1) of 6.9 ns.
Turning to `COc1ccc2c(=O)c3c([nH]c2c1)-c1ccccc1NC3(C)C`, the fluorescence lifetime is, setting by setting: (in C1CCOC1) 8.25 ns; (in CC#N) 9.16 ns; (in CCCCO) 10.2 ns; (in CCCO) 10.1 ns; (in CCO) 9.74 ns; (in CCOC(C)=O) 8.04 ns. Moreover, the fluorescence lifetime runs as follows: (in CN(C)C=O) 10.5 ns; (in CO) 9.35 ns; (in CS(C)=O) 11.4 ns; (in Cc1ccccc1) 7.24 ns; (in ClC(Cl)(Cl)Cl) 5.08 ns; (in ClCCl) 9.46 ns. Besides, the fluorescence lifetime runs as follows: (in O) 7.42 ns; (in c1ccccc1) 7.52 ns.
As to `Cc1cc(C)c(C2=[N+]3C(=Cc4c(C)cc(C)n4[B-]3(F)F)c3ccccc32)[nH]1`, the fluorescence lifetime is, setting by setting: (in C1CCOC1) 3.75 ns; (in CC#N) 4.34 ns; (in CCCCCC) 7.17 ns; (in CO) 4.98 ns; (in Cc1ccccc1) 6.14 ns; (in ClCCl) 6.4 ns.
With `COC(=O)c1nc(Br)c(-c2ccccc2)o1`, under “in C1CCCCC1”, the fluorescence lifetime amounted to 0.49 ns.
For `Cc1cc(C)c(B(c2ccc(-n3c4ccccc4c4ccccc43)cc2)c2c(C)cc(C)cc2C)c(C)c1`, the fluorescence lifetime (in Cc1ccccc1) turned out to be 3.7 ns.
For the setting “in ClC(Cl)Cl”, `Cc1ccc(/C2=c3\cc/c(o3)=C(\c3ccc(C)cc3)c3ccc([nH]3)-c3ccc4n3[P-](=O)(=O)[N+]3=C(C=CC3=C4c3ccc[nH]3)c3ccc2[nH]3)cc1` displayed a fluorescence lifetime of 4 ns.
Take `COc1ccc(-c2nc3c(c4c2-c2ccccc2CC4)-c2ccccc2CC3)cc1`: the fluorescence lifetime worked out at 1.44 ns (in CC#N); 0.45 ns (in CCCCCC); 0.36 ns (in CO); 0.67 ns (in CS(C)=O); 0.25 ns (in ClCCl).
For the setting “in ClC(Cl)Cl”, `CCC[Si](CCC)(CCC)c1cc2ccc3cccc4ccc(c1C(=O)NC(C)(C)C)c2c34` displayed a fluorescence lifetime of 6.91 ns.
Consider `O=Cc1ccc(N(c2ccc(C=O)cc2)c2ccc(-c3ccc4c(c3)C(=O)c3ccccc3C4=O)cc2)cc1`, for which the fluorescence lifetime (in C1CCOC1) is 2.01 ns; the fluorescence lifetime (in CCOC(C)=O) worked out at 1.49 ns; the fluorescence lifetime (in CCOCC) stood at 6.6 ns; the fluorescence lifetime (in Cc1ccccc1) was 6.83 ns; the fluorescence lifetime (in ClC(Cl)(Cl)Cl) is 2.82 ns; the fluorescence lifetime (in ClCCl) came out at 0.79 ns.
`CC[n+]1c(C=C2C(=O)C(C=C3Sc4cc(Cl)ccc4N3C)=C2[O-])[se]c2ccccc21`: the fluorescence lifetime (in CO) is 0.83 ns and the fluorescence lifetime (in ClC(Cl)Cl) is 4.41 ns.
In turn, `c1ccc(/C(=C(\c2ccccc2)c2ccccc2-c2ccc(-c3ccccc3)cc2)c2ccccc2-c2ccc(-c3ccccc3)cc2)cc1` displayed a fluorescence lifetime (in C1CCOC1) of 7 ns.
`CC(C)(C)C#Cc1ccc2c3cccc4cccc(c5cccc1c52)c43` came in with a fluorescence lifetime (in C1CCCCC1) of 4.3 ns.
As to `CC1(C)[C@@H]2[C@@H]1[C@]1(c3ccccc3)N=NC2(c2ccccc2)C2C3C=CC(C3)C21` (stereo partly drawn), for the setting “in CC#N”, the fluorescence lifetime was determined as 402 ns.
With `CCCCCCN1C(=O)C(c2ccc(-n3c4ccccc4c4ccccc43)cc2)=C(c2ccc(-n3c4ccccc4c4ccccc43)cc2)C1=O`, the fluorescence lifetime is, setting by setting: (in ClC(Cl)Cl) 5.4 ns; under setting [1], 4 ns.
In turn, `CC(=O)c1ccc(-c2nc3ccc(N(C)C)c(Br)c3s2)cc1` registered a fluorescence lifetime (in C1CCCCC1) of 0.1 ns.
`COc1ccc(N(c2ccc(OC)cc2)c2ccc(-c3ccc4c(c3)C(=O)c3ccccc3C4=O)cc2)cc1`: the fluorescence lifetime by setting is: (in CCCCCC) 7.04 ns; (in Cc1ccccc1) 1.09 ns; (in ClC(Cl)(Cl)Cl) 5.94 ns.
Consider `CC1=CC(C)=[N+]2C1=Cc1c3ccccc3c(C#Cc3ccsc3)n1[B-]2(F)F`, for which the fluorescence lifetime by setting is: (in CCCCCC) 5.54 ns; (in CCCCCCCCO) 4.91 ns; (in CCOC(C)=O) 5.21 ns; (in CN(C)C=O) 4.8 ns.
`CCOC(=O)COc1ccc(/C=C/C2=C3c4ccccc4C(c4[nH]c(C)cc4C)=[N+]3[B-](F)(F)n3c(/C=C/c4ccc(OCC(=O)OCC)cc4)cc(C)c32)cc1`: where the note is “in ClCCl”, the fluorescence lifetime stood at 4.82 ns.
Under “in ClC(Cl)Cl”, `CC1(C)c2ccccc2-c2ccc(N3c4ccc(-c5ccc(/C=C6\C(=O)c7ccc(C(=O)O)cc7C6=O)s5)cc4C4CCCC43)cc21` (stereo not drawn) registered a fluorescence lifetime of 1.04 ns.
In turn, `C(=C\c1nc(/C=C/c2ccc(-n3c4ccccc4c4ccccc43)cc2)nc(/C=C/c2ccc(-n3c4ccccc4c4ccccc43)cc2)n1)/c1ccc(-n2c3ccccc3c3ccccc32)cc1` had a fluorescence lifetime (in C1CCOC1) of 3.31 ns, a fluorescence lifetime (in CC#N) of 2.03 ns, a fluorescence lifetime (in Cc1ccccc1) of 3.87 ns and a fluorescence lifetime (in ClCCl) of 4.03 ns.
Compound `O=[N+]([O-])c1ccc2c(c1)-c1c3c(c4c([n+]1[B-](F)(F)O2)CCc1ccccc1-4)CCc1ccccc1-3` gave a fluorescence lifetime (in ClCCl) of 0.63 ns.
Regarding `CC(C)(C)c1ccc(Oc2cc3c4c(cc(Oc5ccc(C(C)(C)C)cc5)c5c6c(Oc7ccc(C(C)(C)C)cc7)cc7c8c(cc(Oc9ccc(C(C)(C)C)cc9)c(c2c45)c86)C(=O)N(Cc2ccccc2)C7=O)C(=O)N(Cc2ccccc2)C3=O)cc1`, the fluorescence lifetime (in ClC(Cl)Cl) amounted to 6.3 ns.
Under “in ClCCl”, `COc1ccc2c(c1)CCC1=C(C#Cc3cc4ccccc4c4ccccc34)O[B-](F)(F)[O+]=C12` had a fluorescence lifetime of 1.33 ns.
With `C[Si]1(C)c2ccc(C#Cc3ccccc3)cc2C=Cc2cc(C#Cc3ccccc3)ccc21`, for the setting “in ClCCl”, the fluorescence lifetime amounted to 3.8 ns.
For the compound `Cc1ccc2ccc3cccc4ccc1c2c34`, the fluorescence lifetime reads like this: (in CCCCCC) 67.8 ns; (in CO) 132 ns; (in ClCCl) 79.1 ns.
As for `CCOC(=O)c1ccc(C2CC(c3cccc4ccccc34)=NN2c2ccc(C)cc2)cc1` (stereo not drawn), the fluorescence lifetime (in ClCCl) came to 4.56 ns.
As for `Cc1ccc2c(c1)C(c1ccccc1)(c1ccccc1)c1cc(C)ccc1N2c1ccc2c(c1)N(c1ccccc1)c1ccccc1B2c1c(C(C)C)cc(C(C)C)cc1C(C)C`, the fluorescence lifetime runs as follows: (in Cc1ccccc1) 5.6 ns; (in O=P(c1ccccc1)(c1ccccc1)c1ccc2oc3ccc(P(=O)(c4ccccc4)c4ccccc4)cc3c2c1) 8.7 ns.
With `N#CC(C#N)=C(/C=C/c1cc2c3c(c1)CCCN3CCC2)c1ccc2c3c(cccc13)CC2`, the fluorescence lifetime is, setting by setting: (in C1CCOC1) 5.6 ns; (in CC#N) 2.62 ns; (in CC(C)=O) 2.8 ns; (in CCOC(C)=O) 5.46 ns; (in CN(C)C=O) 2.67 ns; (in CO) 1.63 ns. In addition, the fluorescence lifetime (in Cc1ccccc1) was 4.48 ns and the fluorescence lifetime (in ClC(Cl)Cl) is 6.68 ns.
`CN(C)c1ccc(/C=C/C=C/c2ccc(B(O)O)cc2)cc1` came in with a fluorescence lifetime (in C1CCCCC1) of 0.621 ns.
Where the note is “in C1CCOC1”, `CC(C)(C)c1ccc(C2=C(c3ccc(N(c4ccccc4)c4ccccc4)cc3)S(=O)(=O)c3c2sc(-c2ccc(N(c4ccccc4)c4ccccc4)cc2)c3-c2ccc(C(C)(C)C)cc2)cc1` showed a fluorescence lifetime of 3.03 ns.
As for `O=C1c2ccc(-c3ccc(N(c4ccc(-c5ccccc5)cc4)c4ccc(-c5ccccc5)cc4)cc3)cc2C(=O)c2ccc(-c3ccc(N(c4ccc(-c5ccccc5)cc4)c4ccc(-c5ccccc5)cc4)cc3)cc21`, the fluorescence lifetime by setting is: (in Cc1ccccc1) 11.2 ns; under setting [1], 10.2 ns.
